Source: ChEMBL document CHEMBL3046123, “Molecular bases for resistance to acetyl-coenzyme A carboxylase inhibitor in Japanese foxtail (Alopecurus japonicus)” (Pest Manag Sci, 2012)

What was measured:
[1] = tested on: Alopecurus japonicus; assay: Herbicidal activity against haloxyfop-R-methyl-resistant Alopecurus japonicus (Japanese foxtail) biotype Js-R assessed as inhibition of shoot length after 14 days; type: functional
[2] = tested on: Alopecurus japonicus; assay: Resistance index, ratio of ED50 for haloxyfop-R-methyl-resistant Alopecurus japonicus (Japanese foxtail) biotype Js-R to ED50 for haloxyfop-R-methyl-sensitive Alopecurus japonicus (Japanese foxtail) biotype Js-S; type: functional
[3] = tested on: Alopecurus japonicus; assay: Herbicidal activity against haloxyfop-R-methyl-sensitive Alopecurus japonicus (Japanese foxtail) biotype Js-S assessed as inhibition of shoot length after 14 days; type: functional
[4] = target: T1, ACCase (Alopecurus japonicus, UniProt H9BT73); assay: Inhibition of Acetyl-CoA carboxylase (ACCase) in haloxyfop-R-methyl-sensitive Alopecurus japonicus (Japanese foxtail) biotype Js-S shoot extracts; settings: read-out: I50
[5] = target: ACCase (Alopecurus japonicus) (UniProt H9BT73); assay: Resistance index, ratio of I50 for ACCase in haloxyfop-R-methyl-resistant Alopecurus japonicus (Japanese foxtail) biotype Js-R to I50 for Acetyl-CoA carboxylase (ACCase) in haloxyfop-R-methyl-sensitive Alopecurus japonicus (Japanese foxtail) biotype Js-S
[6] = target: T1, ACCase; assay: Inhibition of Acetyl-CoA carboxylase (ACCase) in haloxyfop-R-methyl-resistant Alopecurus japonicus (Japanese foxtail) biotype Js-R shoot extracts; settings: read-out: I50

Compound | ED50 [1] | Ratio [2] | ED50 [3] | IC50 [4] | Ratio [5] | IC50 [6]
CCOC(=O)[C@@H](C)Oc1ccc(Oc2nc3ccc(Cl)cc3o2)cc1 [FENOXAPROP-P-ETHYL] | 1.289 mg/m2 | 11.35 | 0.114 mg/m2 | – | – | –
CCOC(=O)[C@@H](C)Oc1ccc(Oc2cnc3cc(Cl)ccc3n2)cc1 [QUIZALOFOP-P-ETHYL] | 15.283 mg/m2 | 35.87 | 0.426 mg/m2 | – | – | –
CCCCOC(=O)[C@H](C)Oc1ccc(Oc2ccc(C#N)cc2F)cc1 [CYHALOFOP-BUTYL] | 0.698 mg/m2 | 4.85 | 0.144 mg/m2 | – | – | –
C#CCOC(=O)[C@@H](C)Oc1ccc(Oc2ncc(Cl)cc2F)cc1 [CLODINAFOP PROPARGYL] | 4.209 mg/m2 | 5.84 | 0.721 mg/m2 | – | – | –
CC(Oc1ccc(Oc2ncc(C(F)(F)F)cc2Cl)cc1)C(=O)O (stereo not given) [HALOXYFOP] | – | – | – | 2.6 nM | 10.8 | 28 nM
